# Assay results as given in patent US6906205B2, “Spiro and dispiro 1,2,4-trioxolane antimalarials” (Medicines for Malaria Venture MMV, priority 2002, dated 2005).
# Legend:
# [1] = tested on: P. falciparum K1 strain (Thailand resistant to chloroquine); test: semiautomated microdilution assay, [3H]-hypoxanthine incorporation, K1 strain; format: cell-based, Plasmodium falciparum; conditions: K1 strain, 72 h incubation
# How it was run: (§1)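 Compounds were tested against intraerythrocytic parasites taken from asynchronous stock cultures, using semiautomated microdilution. IC50 values were estimated by logit regression analysis.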
# [2] = tested on: P. falciparum NF54 strain (sensitive to standard antimalarials); test: semiautomated microdilution assay, [3H]-hypoxanthine incorporation, NF54 strain; format: cell-based, Plasmodium falciparum; conditions: NF54 strain, 72 h incubation
# How it was run: as §1
# [3] = tested on: ANKA strain of P. berghei; test: single dose STI in vivo screen in infected mice; parameters: species or system Plasmodium berghei; conditions: for Activity (%) 3 mg/kg SSV po / Activity (%) 10 mg/kg SSV po / Activity (%) po / Activity (%) sc / Activity (%) SSVpo: percent reduction in parasitemia day 3 post-infection; for Activity (%) 3 mg/kg SSV po / Survival (days) 3 mg/kg SSV po: single 3 mg/kg po in SSV; for Activity (%) 10 mg/kg SSV po / Survival (days) 10 mg/kg SSV po: single 10 mg/kg po in SSV; for Activity (%) po / Survival (days) po: single 10 mg/kg po in 3% ethanol and 7% Tween 80; for Activity (%) po / Activity (%) sc / Activity (%) SSVpo: mice; for Activity (%) sc / Survival (days) sc: single 10 mg/kg sc in 3% ethanol and 7% Tween 80; for Survival (days) po / Survival (days) sc / Survival (days) SSVpo: untreated control 5.6 ± 0.3; for Activity (%) SSVpo: single po dose in standard suspending vehicle (SSV); for Survival (days) SSVpo: single po dose in SSV
# How it was run: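 Groups of 3-5 Moro SPF or NMRI mice infected with the ANKA strain of P. berghei received a single dose of trioxolane on day one post-infection. The compound was given in 3% ethanol and 7% Tween 80 or in SSV (0.5% w/v CMC, 0.5% v/v benzyl alcohol, 0.4% v/v Tween 80, 0.9% w/v sodium chloride in water). Antimalarial activity was scored as percent reduction in parasitemia on day three and as survival time versus untreated controls. Survival to day 30 counted as cure.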
# [4] = tested on: Schistosoma mansoni 21-day-old schistosomules; test: effect on 21-day-old schistosomules in mice; format: in vivo; conditions: single 200 mg/kg per os, female mice
# Procedure: All groups were killed 4 weeks after treatment and the liver and intestine were removed and separated. The liver and intestine were compressed and alive male and female worms could be seen and counted. The effect of the compounds was evaluated by mean total and female worm burden.
# [5] = tested on: Schistosoma mansoni adult schistosomes (49-day-old); test: effect on adult schistosomes (49-day-old) in mice; format: in vivo; conditions: for % reduction of adult worms growth at day 49 after per os application of 400 mg/kg, TWR (%) / adult worms at day 49, per os 400 mg/kg, DEAD WORM (%): single 400 mg/kg per os
# Procedure: Mice were infected with 100 Schistosoma mansoni cercariae […]. Each group was treated per os with OZ compounds at single doses of 200, 400, and 600 mg/kg. […] All groups were killed 4 weeks after treatment and the liver and intestine were removed and separated. The liver and intestine were compressed and alive male and female worms could be seen and counted.
SMILES,IC50 (ng/ml) K1 [1],IC50 (ng/ml) NF54 [2],Activity (%) 3 mg/kg SSV po [3] [%],Activity (%) 10 mg/kg SSV po [3] [%],Survival (days) 10 mg/kg SSV po [3] [days],"% reduction of schistosomule growth at day 21 after per os application of 200 mg/kg, FWR (%) [4] [%]","% reduction of schistosomule growth at day 21 after per os application of 200 mg/kg, TWR (%) [4] [%]","% reduction of adult worms growth at day 49 after per os application of 400 mg/kg, TWR (%) [5]","adult worms at day 49, per os 400 mg/kg, DEAD WORM (%) [5]",Survival (days) 3 mg/kg SSV po [3] [days],Activity (%) po [3],Activity (%) sc [3],Survival (days) po [3],Survival (days) sc [3],"% reduction of adult worms growth at day 49 after per os application of 200 mg/kg, TWR (%) ([5]; single 200 mg/kg per os)","adult worms at day 49, per os 200 mg/kg, DEAD WORM (%) ([5]; single 200 mg/kg per os)",Activity (%) SSVpo [3] [%],Survival (days) SSVpo [3] [days]
O=C(O)C1CCN(C(=O)C[C@H]2CC[C@]3(CC2)OO[C@]2(O3)C3CC4CC(C3)CC2C4)CC1 [OZ312],19 ng/mL,27 ng/mL,13,43,7.2,93,94,16%,9%,–,–,–,–,–,–,–,–,–
O=C1CN(C(=O)C[C@H]2CC[C@]3(CC2)OO[C@]2(O3)C3CC4CC(C3)CC2C4)CCN1 [OZ296],0.60 ng/mL,0.89 ng/mL,90,–,10.0,85,85,1%,13%,–,–,–,–,–,–,–,–,–
C1CCCCCC2(CCCCC1)OOC1(O2)C2CC3CC(C2)CC1C3 (centres unmarked) [OZ20],15 ng/mL,20 ng/mL,–,–,–,0,0,0/0%,0/0%,–,–,–,–,–,–,–,–,–
CC(C)(N)C(=O)NC[C@H]1CC[C@]2(CC1)OOC1(O2)C2CC3CC(C2)CC1C3 (some centres unmarked) [OZ281],0.50 ng/mL,0.30 ng/mL,96,–,8.7,90,91,12%,15%,10.2,–,–,–,–,–,–,–,–
NCCOc1ccc([C@H]2CC[C@]3(CC2)OO[C@]2(O3)C3CC4CC(C3)CC2C4)cc1 [OZ323],0.85 ng/mL,1.1 ng/mL,–,–,–,97,95,20%,23%,–,–,–,–,–,–,–,–,–
C1CC2(CCN1)OOC1(O2)C2CC3CC(C2)CC1C3.Cl (centres unmarked) [OZ80],0.15 ng/mL,0.34 ng/mL,–,–,–,75,79,–,–,–,59%,84%,6.3 days,7.7 days,0,3,–,–
O=C(c1ccccc1)N1CCC2(CC1)OOC1(O2)C2CC3CC(C2)CC1C3 (centres unmarked) [OZ24],0.35 ng/mL,0.58 ng/mL,–,–,–,61,65,21%,0%,–,93%,99.9%,7.0 days,8.7 days,–,–,66,6.8
C1C2CC3CC1CC(C2)C31OOC2(O1)C1CC3CC(C1)CC2C3 (centres unmarked) [OZ04],>100/>100 ng/ml,>100/>100 ng/ml,–,–,–,7,7,0/0%,0/0%,–,0/NA/0^1%,0/NA/0^1%,5.3/NA/5.3^1 days,5.3/NA/5.3^1 days,–,–,–,–
c1ccc2c(c1)COC1(CCC3(CC1)OOC1(O3)C3CC4CC(C3)CC1C4)OC2 (centres unmarked) [OZ31],–,–,–,–,–,63,60,4/4%,4/4%,–,99.95%,99.95%,9.0 days,17.7 days,–,–,90,7.3
O=C(O)CC[C@H]1CC[C@]2(CC1)OO[C@]1(O2)C2CC3CC(C2)CC1C3 [OZ352],19 ng/mL,20 ng/mL,77,99.66,8.2,91,89,16%,26%,7.2,–,–,–,–,–,–,–,–
O=C1CC2CC3(CC2C1)OOC1(O3)C2CC3CC(C2)CC1C3 (centres unmarked) [OZ12],–,–,–,–,–,79,78,14%,0%,–,75%,99.8%,7.0 days,9.3 days,–,–,–,–
